Data on 28 molecules can be found in patent US20220332708A1 (Cytokinetics, Inc., priority 2021, published 2022).

This test deals with Bovine cardiac myofibrils. Kind of test: Dose-dependent myofibril ATPase modulation (calcium-buffered, pyruvate kinase and lactate dehydrogenase-coupled ATPase assay at pCa25). The format is biochemical. The following applies: concentration at which ATPase activity was 1.4-fold higher than the bottom of the dose curve, mean of a minimum of two independent tests. As for the experimental part:
In Vitro Model of Dose-Dependent Myofibril ATPase Modulation
Dose responses were measured using a calcium-buffered, pyruvate kinase and lactate dehydrogenase-coupled ATPase assay containing the following reagents (concentrations expressed are final assay concentrations): Potassium PIPES (12 mM), MgCl2 (2 mM), ATP (1 mM), DTT (1 mM), BSA (0.1 mg/ml), NADH (0.5 mM), PEP (1.5 mM), pyruvate kinase (4 U/ml), lactate dehydrogenase (8 U/ml), and antifoam (90 ppm). The pH was adjusted to 6.80 at 22° C. by addition of potassium hydroxide. Calcium levels were controlled by a buffering system containing 0.6 mM EGTA and varying concentrations of calcium, to achieve a free calcium concentration of 1×10^−4 M to 1×10^−8 M.
Bovine cardiac myofibrils were obtained by homogenizing the appropriate tissue in the presence of detergent. Such treatment removes membranes and majority of soluble cytoplasmic proteins but leaves intact cardiac sarcomeric acto-myosin apparatus. Concentrations of myofibrils were adjusted to achieve the necessary rate of ATP hydrolysis (typically 0.25-1.0 mg/ml).
Chemical entity dose responses were measured at the calcium concentration corresponding to 25% of maximal ATPase activity (pCa25), so a preliminary experiment was performed to test the response of the ATPase activity to free calcium concentrations in the range of 1×10^−4 M to 1×10^−8 M. Subsequently, the assay mixture was adjusted to the pCa25. Assays were performed by first preparing a dilution series of test chemical entity, each with an assay mixture containing potassium Pipes, MgCl2, BSA, DTT, pyruvate kinase, lactate dehydrogenase, myofibrils, antifoam, EGTA, CaCl2), and water. The assay was started by adding an equal volume of solution containing potassium Pipes, MgCl2, BSA, DTT, ATP, NADH, PEP, antifoam, and water. ATP hydrolysis was monitored by absorbance at 340 nm. The resulting dose response curve was fit by the 4 parameter equation y=Bottom+((Top−Bottom)/(1+((EC50/X)^Hill))). […] AC1.4 values reported in the table below are mean values based on a minimum of two independent tests.

For the molecule `Cc1[nH]c(S(=O)(=O)N[C@H]2C[C@H](c3ccc(Cl)cc3)C2)cc1C(=O)N1CC(C)(C#N)C1` [Compound 53, N-((trans)-3-(4-chlorophenyl)cyclobutyl)-4-(3-cyano-3-methylazetidine-1-carbonyl)-5-methyl-1H-pyrrole-2-sulfonamide], the AC1.4 is 0.6222 µM.

On to `Cc1[nH]c(S(=O)(=O)N[C@@H]2COc3cc(F)c(Cl)cc3[C@H]2O)cc1C(=O)N1CC(C)(C#N)C1` [Compound 77, N-((3R,4R)-6-chloro-7-fluoro-4-hydroxychroman-3-yl)-4-(3-cyano-3-methylazetidine-1-carbonyl)-5-methyl-1H-pyrrole-2-sulfonamide], for which the AC1.4 amounted to 0.1896 µM.

Turning to `Cc1[nH]c(S(=O)(=O)N[C@H]2C[C@H](c3cccc(F)c3)C2)cc1C(=O)N1CC(C)(C#N)C1` [Compound 51, 4-(3-Cyano-3-methylazetidine-1-carbonyl)-N-((trans)-3-(3-fluorophenyl)cyclobutyl)-5-methyl-1H-pyrrole-2-sulfonamide], the AC1.4 is 2.8889 µM. The value for `Cc1cc(S(=O)(=O)N[C@@H]2COc3cc(F)c(Cl)cc3[C@@H]2O)cc(N2CC(C#N)C2)n1` [Compound 85, N-((3R,4S)-6-chloro-7-fluoro-4-hydroxychroman-3-yl)-2-(3-cyanoazetidin-1-yl)-6-methylpyridine-4-sulfonamide] was 1.3618 µM. The value for `CNc1ccc(S(=O)(=O)Nc2ccc(N3C[C@H](C)C[C@@H](C)C3)nc2)cc1C#N` (racemic) [Compound 1, 3-Cyano-N-(6-(trans-3,5-dimethylpiperidin-1-yl)pyridin-3-yl)-4-(methylamino) benzenesulfonamide] was 14.3998 µM; that for `Cc1[nH]c(S(=O)(=O)N[C@@H]2Cc3cc(F)c(Cl)cc3[C@H]2O)cc1C(=O)N1CC(C)(C#N)C1` [Compound 89] was 0.2521 µM; that for `Cc1cc(S(=O)(=O)N[C@@H]2COc3cc(F)c(Cl)cc3[C@@H]2O)cc(N2CC(OC(F)F)C2)n1` [Compound 88, N-((3R,4S)-6-chloro-7-fluoro-4-hydroxychroman-3-yl)-2-(3-(difluoromethoxy)azetidin-1-yl)-6-methylpyridine-4-sulfonamide] was 2.209 µM. With `Cc1[nH]c(S(=O)(=O)N[C@@H]2Cc3cc(F)c(Cl)cc3C2)cc1C(=O)N1CC(C)(C#N)C1` (single isomer, unassigned) [Compound 83], the AC1.4 worked out at 0.06985 µM. Under `Cc1[nH]c(S(=O)(=O)N[C@@H]2COc3cc(F)c(Cl)cc3[C@@H]2O)cc1C(=O)N1CC(C)(C#N)C1` [Compound 78, N-((3R,4S)-6-chloro-7-fluoro-4-hydroxychroman-3-yl)-4-(3-cyano-3-methylazetidine-1-carbonyl)-5-methyl-1H-pyrrole-2-sulfonamide] stands 0.1127 µM. The value for `CNc1cc2c(cc1S(=O)(=O)N[C@H]1C[C@@H](Nc3ccc(F)cc3)C1)c(=O)[nH]c(=O)n2C` [Compound 25, N-((cis)-3-((4-fluorophenyl)amino)cyclobutyl)-1-methyl-7-(methylamino)-2,4-dioxo-1,2,3,4-tetrahydroquinazoline-6-sulfonamide] was 1.8965 µM; that for `CNc1cc2c(cc1S(=O)(=O)N[C@H]1C[C@H](c3cc(C(F)(F)F)ccn3)C1)c(=O)[nH]c(=O)n2C` [Compound 60, 1-Methyl-7-(methylamino)-2,4-dioxo-N-((trans)-3-(4-(trifluoromethyl)pyridin-2-yl)cyclobutyl)-1,2,3,4-tetrahydroquinazoline-6-sulfonamide] was 2.062 µM.

Regarding `Cc1[nH]c(S(=O)(=O)N[C@@H]2CCc3c([nH]c4ccccc34)C2)cc1C(=O)N1CCC1` [Compound 41, (R)-4-(azetidine-1-carbonyl)-5-methyl-N-(2,3,4,9-tetrahydro-1H-carbazol-2-yl)-1H-pyrrole-2-sulfonamide], the AC1.4 turned out to be 0.2434 µM. In the case of `Cc1[nH]c(S(=O)(=O)N[C@@H]2CCc3c([nH]c4ccccc34)C2)cc1C(=O)N1CCCC1` [Compound 46, (R)-5-methyl-4-(pyrrolidine-1-carbonyl)-N-(2,3,4,9-tetrahydro-1H-carbazol-2-yl)-1H-pyrrole-2-sulfonamide], the AC1.4 was 0.2277 µM.

`CNc1cc2nc(C)[nH]c(=O)c2cc1S(=O)(=O)NC1CC(c2cccc(F)c2)C1` (stereo not shown) [Compound 24, N-(3-(3-fluorophenyl)cyclobutyl)-2-methyl-7-(methylamino)-4-oxo-3,4-dihydroquinazoline-6-sulfonamide]: the AC1.4 turned out to be 5.6964 µM.

As for `Cc1[nH]c(S(=O)(=O)NC2Cc3cc(Cl)c(Cl)cc3C2)cc1C(=O)N1CC(C)(C#N)C1` [Compound 79, 4-(3-cyano-3-methylazetidine-1-carbonyl)-N-(5,6-dichloro-2,3-dihydro-1H-inden-2-yl)-5-methyl-1H-pyrrole-2-sulfonamide], the AC1.4 was determined as 0.0599 µM. The value for `CNc1cc2c(cc1S(=O)(=O)NC1CC(c3ccccc3)C1)c(=O)[nH]c(=O)n2C` (stereo not shown) [Compound 20, 1-Methyl-7-(methylamino)-2,4-dioxo-N-(3-phenylcyclobutyl)-1,2,3,4-tetrahydroquinazoline-6-sulfonamide] was 3.9537 µM. Consider `Cc1[nH]c(S(=O)(=O)N[C@@H]2CCc3c([nH]c4ccccc34)C2)cc1C1=NCC(C)(C)O1` [Compound 68, (R)-4-(5,5-dimethyl-4,5-dihydrooxazol-2-yl)-5-methyl-N-(2,3,4,9-tetrahydro-1H-carbazol-2-yl)-1H-pyrrole-2-sulfonamide], for which the AC1.4 worked out at 0.1213 µM. As to `Cc1nc2cc(C)c(S(=O)(=O)Nc3ccc(N4C[C@@H](C)C[C@H](C)C4)nc3)cc2c(=O)[nH]1` (racemic) [Compound 9, N-(6-((trans)-3,5-dimethylpiperidin-1-yl)pyridin-3-yl)-2,7-dimethyl-4-oxo-3,4-dihydroquinazoline-6-sulfonamide], the AC1.4 was found to be 9.2363 µM. Under `CNc1cc2nc(C)[nH]c(=O)c2cc1S(=O)(=O)N[C@@H]1CCc2c([nH]c3ccccc23)C1` (single isomer, unassigned) [Compound 33] stands 0.0762 µM; under `Cc1cc(S(=O)(=O)N[C@@H]2COc3cc(F)c(Cl)cc3[C@@H]2O)cc(N2CC[C@@H](C#N)C2)n1` [Compound 91, N-((3R,4S)-6-chloro-7-fluoro-4-hydroxychroman-3-yl)-2-((R)-3-cyanopyrrolidin-1-yl)-6-methylpyridine-4-sulfonamide], 1.417 µM. The value for `Cc1[nH]c(S(=O)(=O)N[C@@H]2Cc3cc(Cl)c(Cl)cc3[C@H]2O)cc1C(=O)N1CC(C)(C#N)C1` (racemic) [Compound 99] was 0.2635 µM; that for `CNc1cc2c(cc1S(=O)(=O)N[C@H](C)Cc1cc3ccc(F)cc3[nH]1)c(=O)[nH]c(=O)n2C` [Compound 26, (R)-N-(1-(6-fluoro-1H-indo1-2-yl)propan-2-yl)-1-methyl-7-(methylamino)-2,4-dioxo-1,2,3,4-tetrahydroquinazoline-6-sulfonamide] was 2.215 µM; that for `Cc1[nH]c(S(=O)(=O)N[C@@H]2Cc3cc(F)c(Cl)cc3C2)cc1C(=O)N1CC2(C1)CC(F)(F)C2` [Compound 97, (R)-N-(5-chloro-6-fluoro-2,3-dihydro-1H-inden-2-yl)-4-(6,6-difluoro-2-azaspiro[3.3]heptane-2-carbonyl)-5-methyl-1H-pyrrole-2-sulfonamide] was 0.2269 µM. With `CNc1cc2c(cc1S(=O)(=O)N[C@H]1C[C@@H](Nc3ccccc3)C1)c(=O)[nH]c(=O)n2C` [Compound 17], the AC1.4 was 0.6931 µM. The value for `CCOC(=O)c1cc(S(=O)(=O)Nc2ccc(N3C[C@H](C)C[C@@H](C)C3)nc2)[nH]c1C` [Compound 30, Ethyl 5-(N-(6-((3R,5R)-3,5-dimethylpiperidin-1-yl)pyridin-3-yl)sulfamoyl)-2-methyl-1H-pyrrole-3-carboxylate] was 0.4832 µM; that for `CNc1cc2nc(C)[nH]c(=O)c2cc1S(=O)(=O)Nc1ccc(-c2ccccc2)cc1` [Compound 4, N-([1,1′-biphenyl]-4-yl)-2-methyl-7-(methylamino)-4-oxo-3,4-dihydroquinazoline-6-sulfonamide] was 0.1832 µM; that for `COc1cc2c(cc1S(=O)(=O)N[C@H]1C[C@H](n3cc(C(F)(F)F)c(C)n3)C1)c(=O)[nH]c(=O)n2C` [Compound 62, 7-Methoxy-1-methyl-N-((trans)-3-(3-methyl-4-(trifluoromethyl)-1H-pyrazol-1-yl)cyclobutyl)-2,4-dioxo-1,2,3,4-tetrahydroquinazoline-6-sulfonamide] was 0.8691 µM. The value for `Cc1[nH]c(S(=O)(=O)N[C@]2(Cc3ccc(Cl)cc3)CCOC2)cc1C(=O)N1CC(F)(F)C1` [Compound 64, (R)-N-(3-(4-chlorobenzyl)tetrahydrofuran-3-yl)-4-(3,3-difluoroazetidine-1-carbonyl)-5-methyl-1H-pyrrole-2-sulfonamide] was 0.3886 µM.
